From patent US11945799B2, “4-ethynylpyridine derivatives useful as GCN2 inhibitors” (IP2IPO INNOVATIONS LIMITED, priority 2020, dated 2024)
Read-outs that look alike come from different tables or passages of the source.

Experiments:
[1] = Kinetic solubility in PBS buffer pH 7.4; format: physicochemical; conditions: for solubility kinetic at 90 min: aqueous buffer, kinetic from dmso stock, PBS buffer pH 7.4, 90 minutes at room temperature, from 10 mM DMSO stock
Procedure: The kinetic solubility assay investigates a solubility based on the amount of material which remains in solution after a precipitation process. […] Assay is performed using Multiscreen Vacuum Manifold. A buffer of interest (in standard protocol PBS buffer at pH=7.4 is used) is spiked with stock solution and incubated for 90 minutes at room temperature. After that time solution/suspension is filtrated. The concentration of each compound is determined on the base of prepared calibration curve using UV-VIS spectrophotometry method. The assay is made in triplicate.
Buffer of interest: 0.24 g of KH2PO4, 1.44 g of Na2HPO4, 0.2 g of KCl and 8 g NaCl and dissolve in 1 L distilled H2O; adjust pH to appropriate value (pH 7.4). 190 μl of buffer of interest was dispensed into the wells of a 96 well filter plate, followed by 10 μl of compound (10 mM stock solution in DMSO). The plate was shaken gently at room temperature for 90 minutes at 500 rpm using a BioSan, Plate Shaker-Thermostat, PST-60 HL-4. After 90 minutes, the plate was filtered using a vacuum manifold and vacuum pump. 100 μl of each filtrate and 100 μl acetonitrile was transferred to a 96 well UV-visible light transparent plate and the UV-visible absorption spectrum was measured using a Biotek Synergy 2 multiplate reader from 250-500 nm, interval range 10 nm. The amount of test compound was calculated using a calibration curve prepared by serial dilution of compounds in equivalent amounts of DMSO and acetonitrile.

ZAK = ZAK (Homo sapiens, UniProt Q9NYL2); conditions: KINOMEscan, kinase ZAK; as reported in Nakamura et al (2018); cited from earlier work
Chain of ZAK (Q9NYL2 whole entry): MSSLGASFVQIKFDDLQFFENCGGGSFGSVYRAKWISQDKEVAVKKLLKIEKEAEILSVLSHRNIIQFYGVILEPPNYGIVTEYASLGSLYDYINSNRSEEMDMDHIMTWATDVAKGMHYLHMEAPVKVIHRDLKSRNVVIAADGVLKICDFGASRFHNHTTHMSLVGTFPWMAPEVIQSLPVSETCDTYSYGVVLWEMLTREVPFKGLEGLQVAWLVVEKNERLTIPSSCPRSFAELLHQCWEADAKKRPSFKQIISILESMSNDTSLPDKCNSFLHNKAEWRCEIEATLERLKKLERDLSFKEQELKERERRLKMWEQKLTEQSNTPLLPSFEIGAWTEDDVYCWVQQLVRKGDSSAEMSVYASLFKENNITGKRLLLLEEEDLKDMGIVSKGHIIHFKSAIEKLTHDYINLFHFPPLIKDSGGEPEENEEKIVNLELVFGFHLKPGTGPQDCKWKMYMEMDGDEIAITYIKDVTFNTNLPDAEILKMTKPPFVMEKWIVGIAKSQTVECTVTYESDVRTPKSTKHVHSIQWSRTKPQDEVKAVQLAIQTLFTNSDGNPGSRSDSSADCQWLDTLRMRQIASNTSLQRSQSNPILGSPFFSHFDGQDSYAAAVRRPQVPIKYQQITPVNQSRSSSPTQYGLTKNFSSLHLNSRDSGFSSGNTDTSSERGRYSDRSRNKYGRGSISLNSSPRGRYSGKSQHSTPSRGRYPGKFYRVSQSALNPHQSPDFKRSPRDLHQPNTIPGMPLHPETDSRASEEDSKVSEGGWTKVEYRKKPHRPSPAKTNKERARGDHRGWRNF

MAP2K5 = target: T1, MAP2K5 (Homo sapiens, UniProt Q13163); conditions: KINOMEscan, kinase MAP2K5; as reported in Nakamura et al (2018); cited from earlier work
T1 sequence (Q13163 1-448): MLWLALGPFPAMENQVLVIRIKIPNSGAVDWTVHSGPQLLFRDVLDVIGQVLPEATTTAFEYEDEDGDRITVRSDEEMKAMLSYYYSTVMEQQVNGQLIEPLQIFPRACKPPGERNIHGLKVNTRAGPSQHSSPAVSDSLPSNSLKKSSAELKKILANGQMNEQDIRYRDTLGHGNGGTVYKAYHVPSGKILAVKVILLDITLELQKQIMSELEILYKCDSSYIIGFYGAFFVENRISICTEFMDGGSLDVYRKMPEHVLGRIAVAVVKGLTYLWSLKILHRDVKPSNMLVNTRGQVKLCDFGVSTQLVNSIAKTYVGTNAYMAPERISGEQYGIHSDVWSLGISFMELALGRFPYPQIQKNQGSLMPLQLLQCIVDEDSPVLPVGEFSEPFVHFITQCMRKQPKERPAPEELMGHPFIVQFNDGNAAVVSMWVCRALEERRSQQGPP

STK10 = STK10 (Homo sapiens, UniProt O94804); conditions: KINOMEscan, kinase STK10; as reported in Nakamura et al (2018); cited from earlier work
Chain of STK10 (O94804 whole entry): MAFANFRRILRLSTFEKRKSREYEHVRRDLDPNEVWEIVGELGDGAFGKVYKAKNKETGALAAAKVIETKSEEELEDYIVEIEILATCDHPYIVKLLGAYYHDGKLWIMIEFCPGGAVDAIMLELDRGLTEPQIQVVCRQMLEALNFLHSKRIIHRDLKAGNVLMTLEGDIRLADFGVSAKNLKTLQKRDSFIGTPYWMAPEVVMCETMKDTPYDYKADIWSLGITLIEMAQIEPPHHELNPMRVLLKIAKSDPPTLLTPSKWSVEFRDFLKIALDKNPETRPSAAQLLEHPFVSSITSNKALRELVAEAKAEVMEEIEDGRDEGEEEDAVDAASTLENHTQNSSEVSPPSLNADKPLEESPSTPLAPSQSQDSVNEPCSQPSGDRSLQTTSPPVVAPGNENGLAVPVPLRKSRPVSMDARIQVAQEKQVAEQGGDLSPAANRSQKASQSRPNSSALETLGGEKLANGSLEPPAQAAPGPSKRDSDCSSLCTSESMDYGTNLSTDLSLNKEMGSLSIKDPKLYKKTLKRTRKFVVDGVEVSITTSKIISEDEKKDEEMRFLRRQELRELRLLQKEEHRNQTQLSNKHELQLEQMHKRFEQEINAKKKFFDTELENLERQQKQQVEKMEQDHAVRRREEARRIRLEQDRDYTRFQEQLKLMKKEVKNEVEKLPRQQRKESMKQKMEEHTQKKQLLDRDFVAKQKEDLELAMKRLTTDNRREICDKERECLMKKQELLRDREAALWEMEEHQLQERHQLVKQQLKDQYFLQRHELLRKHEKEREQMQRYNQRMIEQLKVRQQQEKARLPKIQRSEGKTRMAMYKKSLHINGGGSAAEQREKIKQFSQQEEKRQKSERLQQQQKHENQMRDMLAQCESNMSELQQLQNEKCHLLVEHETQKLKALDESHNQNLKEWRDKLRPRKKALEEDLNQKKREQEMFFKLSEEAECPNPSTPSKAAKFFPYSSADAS

[2] = target: T2, full-length human GCN2 enzyme (Homo sapiens, UniProt Q9P2K8); assay: GCN2 enzyme inhibition, LanthaScreen TR-FRET Kinase Activity assay (10 μM and 300 μM ATP); format: biochemical; conditions: for IC50 / Ki: mean of replicate assays
T2 construct: purchased Carna Bioscience
T2 sequence (Q9P2K8 whole entry): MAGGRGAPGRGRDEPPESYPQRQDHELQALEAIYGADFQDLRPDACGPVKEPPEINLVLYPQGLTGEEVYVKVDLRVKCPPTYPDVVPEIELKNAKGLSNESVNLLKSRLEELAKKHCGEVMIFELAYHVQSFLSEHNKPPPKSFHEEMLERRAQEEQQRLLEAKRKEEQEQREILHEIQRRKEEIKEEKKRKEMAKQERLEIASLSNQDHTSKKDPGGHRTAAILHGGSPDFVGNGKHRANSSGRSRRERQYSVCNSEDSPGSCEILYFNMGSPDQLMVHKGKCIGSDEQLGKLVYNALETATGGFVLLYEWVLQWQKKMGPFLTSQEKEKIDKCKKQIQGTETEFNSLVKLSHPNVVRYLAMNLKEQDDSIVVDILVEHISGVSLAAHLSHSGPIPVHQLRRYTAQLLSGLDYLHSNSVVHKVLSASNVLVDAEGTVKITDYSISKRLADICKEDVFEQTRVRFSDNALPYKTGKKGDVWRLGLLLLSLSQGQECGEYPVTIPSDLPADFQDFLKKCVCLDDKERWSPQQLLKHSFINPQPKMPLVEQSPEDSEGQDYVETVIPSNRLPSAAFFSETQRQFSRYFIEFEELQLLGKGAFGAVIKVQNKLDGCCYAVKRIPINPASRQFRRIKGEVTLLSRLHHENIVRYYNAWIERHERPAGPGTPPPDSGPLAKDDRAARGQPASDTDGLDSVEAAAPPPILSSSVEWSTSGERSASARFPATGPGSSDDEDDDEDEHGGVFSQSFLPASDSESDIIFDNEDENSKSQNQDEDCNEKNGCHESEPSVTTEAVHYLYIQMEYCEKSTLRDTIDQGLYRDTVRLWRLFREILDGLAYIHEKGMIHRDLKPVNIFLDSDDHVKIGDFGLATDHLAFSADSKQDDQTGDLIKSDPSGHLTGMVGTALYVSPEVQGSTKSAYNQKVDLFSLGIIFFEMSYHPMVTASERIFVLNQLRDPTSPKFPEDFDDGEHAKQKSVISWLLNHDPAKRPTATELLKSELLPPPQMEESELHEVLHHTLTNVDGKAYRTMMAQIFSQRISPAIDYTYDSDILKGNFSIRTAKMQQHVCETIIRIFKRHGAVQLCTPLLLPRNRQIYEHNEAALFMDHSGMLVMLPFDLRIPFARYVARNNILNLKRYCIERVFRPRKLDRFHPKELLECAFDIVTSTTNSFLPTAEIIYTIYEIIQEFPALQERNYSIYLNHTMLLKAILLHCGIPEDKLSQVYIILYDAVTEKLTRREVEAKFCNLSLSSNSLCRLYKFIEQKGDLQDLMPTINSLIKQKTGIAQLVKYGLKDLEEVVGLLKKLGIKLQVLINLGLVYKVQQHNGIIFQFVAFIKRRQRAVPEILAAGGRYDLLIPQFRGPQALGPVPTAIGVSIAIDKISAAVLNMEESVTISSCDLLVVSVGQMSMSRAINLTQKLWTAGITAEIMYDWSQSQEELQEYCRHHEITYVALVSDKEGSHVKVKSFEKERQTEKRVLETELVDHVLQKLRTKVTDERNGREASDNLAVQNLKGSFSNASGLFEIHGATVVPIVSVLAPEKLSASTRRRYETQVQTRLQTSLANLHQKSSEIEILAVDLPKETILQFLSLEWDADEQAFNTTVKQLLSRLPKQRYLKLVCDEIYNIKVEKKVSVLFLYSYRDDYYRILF
Procedure: Biological and Pharmacokinetic Testing (a) GCN2 Enzyme Inhibition (10 μM and 300 μM Assays) Assay Protocol Overview:
The inhibitory activity of the Example compounds towards GCN2 enzyme was measured according to the description below, using a LanthaScreen TR-FRET (Time Resolved Fluorescence Resonance Energy Transfer) Kinase Activity assay distributed by ThermoFisher Scientific.
The full-length human GCN2 enzyme (UniProt accession number Q9P2K8) was used for all experiments (Carna Bioscience). The TR-FRET pair was composed of GFP-eIF2α and LanthaScreen Terbium-labeled anti-peIF2α (pSer52) Antibody.
Each example compound was dissolved in DMSO (0.15 mM) and dispensed in a 384-well plate by a D300 dispenser (Tecan) to a final concentration range 3000-0.13 nM using the logarithmic dilution mode in 2 replicates. Full inhibition (3000 nM commercial reference inhibitor) and DMSO vehicle control wells were also included on the same plate. All volumes were normalized to the final DMSO concentration of 2% of the reaction volume. Next, 5 μL of H2O was added to each well of the plate.
The enzyme mixture was prepared to obtain the following concentrations: • GCN2—30 nM • unloaded tRNA—0.3 nM • HEPES (pH=7.0)—100 mM • MgCl2—20 mM; MnCl2—10 mM
The mixture was applied by adding 5 μL to each well of the plate. The enzyme and the tested compound were then incubated at room temperature for 20 min while shaking at 450 rpm.
The substrate mixture was prepared to obtain the following concentrations: • GFP-eIF2α—240 nM • ATP—900 μM or 30 μM • HEPES (pH=7.0)—50 mM • MgCl2—10 mM • MnCl2—5 mM.
The mixture was applied by adding 5 μL to each well of the plate. Thus, the final concentrations of the 15 μL reaction mixture were as follows: • GCN2—10 nM • unloaded tRNA—0.1 nM • GFP-eIF2α—80 nM • ATP—300 μM or 10 μM • HEPES (1 M, pH=7.0)—50 mM • MgCl2—10 mM • MnCl2—5 mM.
The reaction was allowed to proceed at room temperature for 30 min while shaking at 450 rpm.
The antibody mixture was prepared to obtain the following concentrations: • Na2EDTA·2H2O—40 mM, in TR-FRET Dilution Buffer (Life technologies) • Tb—anti-peIF2a antibodies—4 nM.
The mixture was applied by adding 15 μL to each well. The plate was then incubated at room temperature for 60 min while shaking at 450 rpm and then read using Tecan Spark reader using specific TR-FRET filters.
The analysis of the GFP/Tb fluorescence results was conducted with GraphPad Prism to determine IC50 for each of the example compounds using 4-parameter model: log(inhibitor) vs. response-variable slope. IC50 and K, values were calculated in the usual way. The assay was carried out between 1 and 15 times. The results in the table below are the mean results from replicate assays for the compound in question, where applicable.

GCN2 [3] = conditions: KINOMEscan, kinase GCN2; as reported in Nakamura et al (2018); cited from earlier work
GCN2 [4] = assay: KINOMEscan competition binding assay, GCN2; parameters: species or system human; conditions: kinase GCN2
Procedure: (§1) Compounds were tested for activity against off-target kinases using the KINOMEscan™ screening platform, which employs a novel and proprietary active site-directed competition binding assay to quantitatively measure interactions between test compounds and hundreds of human kinases and disease relevant mutant variants.
(§2) For most assays, kinase-tagged T7 phage strains were grown in parallel in 24-well blocks in an E. coli host derived from the BL21 strain. E. coli were grown to log-phase and infected with T7 phage from a frozen stock (multiplicity of infection=0.4) and incubated with shaking at 32° C. until lysis (90-150 minutes). The lysates were centrifuged (6,000×g) and filtered (0.2 μm) to remove cell debris. The remaining kinases were produced in HEK-293 cells and subsequently tagged with DNA for qPCR detection. […] The liganded beads were blocked with excess biotin and washed with blocking buffer (SeaBlock (Pierce), 1% BSA, 0.05% Tween 20, 1 mM DTT) to remove unbound ligand and to reduce non-specific phage binding. […] Test compounds were prepared as 40× stocks in 100% DMSO and directly diluted into the assay. All reactions were performed in polypropylene 384-well plates in a final volume of 0.02 ml. […] The kinase concentration in the eluates was measured by qPCR.

off-target kinases = assay: KINOMEscan kinase selectivity panel; format: binding, human; conditions: kinases other than those at <0.5%
Procedure: as §1, §2

MEK5 = target: T3, MEK5 (Homo sapiens, UniProt Q13163); assay: KINOMEscan competition binding assay, MEK5; conditions: kinase MEK5
T3 construct: host or cells: E. coli BL21-derived (T7 phage) or HEK-293
T3 sequence (Q13163 1-448): T1 sequence (Q13163 1-448)
Procedure: as §1, §2

[5] = read-out: GCN2 IC50 (nM) 10 uM ATP, 10 uM ATP
[6] = read-out: GCN2 IC50 (nM) 300 uM ATP, 300 uM ATP
[7] = read-out: GCN2 Ki (nM) 10 uM ATP, 10 uM ATP
[8] = read-out: GCN2 Ki (nM) 300 uM ATP, 300 uM ATP

| SMILES | solubility kinetic at 90 min [1] [µg/mL] | % Control (ZAK) [%] | % Control (MAP2K5) [%] | % Control (STK10) [%] | IC50 [2, 5] [nM] | IC50 [2, 6] [nM] | Ki [2, 7] [nM] | Ki [2, 8] [nM] | % Control (GCN2 [3]) [%] | kinetic solubility (in words) [1] | % Control (GCN2 [4]) [%] | Kinases with % Control <5% (off-target kinases) | GCN2 inhibitory activity (in words) [2] | % Control (MEK5) [%] |
| --- | --- | --- | --- | --- | --- | --- | --- | --- | --- | --- | --- | --- | --- | --- |
| COc1ncc(Cl)cc1S(=O)(=O)Nc1ccc(F)c(C#Cc2cnc(N)nc2)c1F [Comp Ex 1, reference compound] | 4.7 | <5 | <5 | <5 | 5.9 | 59.2 | 1.9 | 0.9 | <0.5 |  |  |  |  |  |
| COc1ncc(Cl)cc1S(=O)(=O)Nc1nccc(C#Cc2cnc(N)nc2)c1F [Example 1, N-{4-[2-(2-aminopyrimidin-5-yl)ethynyl]-3-fluoropyridin-2-yl}-5-chloro-2-methoxypyridine-3-sulfonamide] | 218 |  |  |  | 7.2 | 103 | 2.3 | 1.6 |  | good | <0.5 | None | strong |  |
| COc1ncc(Cl)cc1S(=O)(=O)Nc1nccc(C#Cc2cnc3[nH]ncc3c2)c1F [Example 3, 5-chloro-N-[3-fluoro-4-(2-{1H-pyrazolo[3,4-b]pyridin-5-yl}ethynyl)pyridin-2-yl]-2-methoxypyridine-3-sulfonamide] | 229 |  |  |  | 3.5 | 26.5 | 1.1 | 0.6 |  | good | <0.5 |  | strong | <5 |
| COc1ncc(Cl)cc1S(=O)(=O)Nc1nccc(C#Cc2cnc3[nH]c(=O)[nH]c3c2)c1F [Example 32, 5-chloro-N-[3-fluoro-4-(2-{2-oxo-1H,2H,3H-imidazo[4,5-b]pyridin-6-yl}ethynyl)pyridin-2-yl]-2-methoxypyridine-3-sulfonamide] | 40.1 |  |  |  |  | 48.1 |  | 0.7 |  |  |  |  |  |  |
| COc1ncc(Cl)cc1S(=O)(=O)Nc1nccc(C#Cc2cnc3[nH]nc(C)c3c2)c1F [Example 33, 5-chloro-N-[3-fluoro-4-(2-{3-methyl-1H-pyrazolo[3,4-b]pyridin-5-yl}ethynyl)pyridin-2-yl]-2-methoxypyridine-3-sulfonamide] | 245 |  |  |  | 4.2 | 21.7 | 1.3 | 0.3 |  |  |  |  |  |  |
| COc1ncc(Cl)cc1S(=O)(=O)Nc1nccc(C#Cc2cnc(N)nc2C)c1F [Example 34, N-{4-[2-(2-amino-4-methylpyrimidin-5-yl)ethynyl]-3-fluoropyridin-2-yl}-5-chloro-2-methoxypyridine-3-sulfonamide] | 238 |  |  |  |  | 658 |  | 10 |  |  |  |  |  |  |
| COc1ncc(Cl)cc1S(=O)(=O)Nc1nccc(C#Cc2cnc3[nH]c(=O)n(C)c3c2)c1F [Example 36, 5-chloro-N-[3-fluoro-4-(2-{1-methyl-2-oxo-1H,2H,3H-imidazo[4,5-b]pyridin-6-yl}ethynyl)pyridin-2-yl]-2-methoxypyridine-3-sulfonamide] | 240 |  |  |  |  | 182 |  | 2.8 |  |  |  |  |  |  |
| COc1ncc(Cl)cc1S(=O)(=O)Nc1nccc(C#Cc2cnc3[nH]nc(OC)c3c2)c1F [Example 37, 5-chloro-N-[3-fluoro-4-(2-{3-methoxy-1H-pyrazolo[3,4-b]pyridin-5-yl}ethynyl)pyridin-2-yl]-2-methoxypyridine-3-sulfonamide] | > 244 |  |  |  |  | 20.9 |  | 0.3 |  |  |  |  |  |  |
| COc1ncc(Cl)cc1S(=O)(=O)Nc1nccc(C#Cc2cnc(N)c3nccnc23)c1F [Example 38, N-[4-(2-{5-aminopyrido[3,4-b]pyrazin-8-yl}ethynyl)-3-fluoropyridin-2-yl]-5-chloro-2-methoxypyridine-3-sulfonamide] | 245 |  |  |  |  | 55.3 |  | 0.8 |  |  |  |  |  |  |
